Test results reported in patent US20180092908A1, “SMALL MOLECULE OXIDIZERS OF PDI AND THEIR USE” (THE TRUSTEES OF COLUMBIA UNIVERSITY IN THE CITY OF NEW YORK, priority 2015, published 2018).
Like-named read-outs stand apart in the source and are kept apart here.

What was measured:
[1] = system: cortical neurons; experiment: Tau4R-induced neurodegeneration brain slice assay; assay type: cell-based; conditions: rat corticostriatal brain slice, tau4R transfection, 4 days
Method: Rat corticostriatal brain slice explants co-transfected with YFP and the tau isoform with 4 tubulin-binding repeats (Tau4R) were treated with LOC14, an analog of LOC14 “BIT fragment” (1,2,Benzisothiazol-3-one), or DMSO only for 4 days. Data are plotted as mean±SEM from one of five representative experiments. *Significant by ANOVA followed by Dunnett's post hoc comparison test at p<0.05.
Next, whether LOC14 could be neuroprotective in additional models of neurodegenerative diseases was explored. […] In this rat corticostriatal brain slice assay, cortical neuron degeneration is induced by biolistic transfection with tau, in this case a tau isoform with 4 tubulin-binding repeats (“tau4R”) which is implicated in frontotemporal dementias and more broadly in Alzheimer's disease.

[2] = Mouse plasma stability assay; assay type: in vitro ADME; conditions: compound 1.0 μM
Method: Test compound (1 μM) was incubated at 37° C. for up to 120 minutes in mouse plasma. At 0, 15, 30, 60, and 120 minute intervals an 100 μL aliquot was taken and quenched with 200 μL acetonitrile (ACN) containing internal standard. Following completion of the experimentation, the samples were analyzed by LC-MS/MS. The half-life (t1/2) was calculated using the following equation: t1/2=0.693/k, where, k is the elimination rate constant of test compounds obtained by fitting the data to the equation: C=initial×exp (−k×t). Results were reported as peak area ratios of analyte to internal standard.
The microsome stability assay, plasma stability assay, and plasma protein binding assay were each performed by Alliance Pharma, Inc. (Malvern, Pa.).

[3] = Solubility; conditions: DMSO, Table 5
[4] = system: striatal medium spiny neurons (MSNs); experiment: HD brain slice assay (mHTT-Q73 transfected corticostriatal explants); assay type: cell-based; conditions: rat corticostriatal brain slice explants, YFP + mHTT-Q73, 4 days
Method: Brain slice explants were prepared and transfected as previously described (Reinhart et al., 2011). Briefly, brains were taken from postnatal day 10 CD Sprague-Dawley rat pups and cut into 250 μm coronal slices on a vibratome (Vibratome Co., St. Louis, Mo.). Brain slices containing striatum and cortex were then placed in individual wells of 12-well plates atop culture medium set in 0.5% agarose and maintained at 32° C. under 5% CO2. Co-transfection with YFP and Htt exon-1 containing a 73 polyglutamine repeat was done using a biolistic device (Bio-Rad Helios Gene Gun, Hercules, Calif.). Positive controls were transfected with YFP only or treated with a combination of 50 μM KW-6002 (istradefylline) and 50 μM SP600125. Negative control brain slices were treated with 0.1% DMSO carrier only. Striatal medium spiny neurons (MSNs) expressing YFP were visualized under fluorescence microscopy and identified based on their location within brain slices and their characteristic morphology.
Having elucidated aspects of the biophysical mechanism of action of LOC14 binding to PDI, the next exploration concerned whether LOC14 would be a good candidate for in vivo studies. […] In the absence of LOC14, very few healthy MSNs remained, as assessed by the lack of normal sized and shaped cell bodies, absence of long primary dendrites, and lack of continuous expression of YFP throughout the cell (FIG. 10).

[5] = system: plasma proteins; experiment: Mouse plasma protein binding assay; assay type: in vitro ADME; conditions: mouse plasma
Method: (§1) A test compound at the concentration of 2000 ng/mL in plasma was added into the sample chamber, and a dialysis buffer phosphate-buffered saline (PBS) was added into the buffer chamber, covering the unit with sealing tape and incubating for 4 hours at 37° C. at approximately 100 rpm on an orbital shaker. The incubation samples were taken from both plasma and buffer chamber at the end of the incubation, and then samples were analyzed by LC-MS/MS. Protein binding and free fraction percentage were determined using peak area ratio of analyte to internal standard. Fraction bound percent was calculated as: % Bound=100*(Cplasma−CPBS)/Cplasma. The fraction recovered percent was calculated as: % Recovery=(VPBS*CPBS+Vplasma*Cplasma)/(Vplasma*Cspike) where VPBS is Volume of PBS, Vplasma is Volume of Plasma, CPBS is Drug concentration in PBS (Analyte/IS peak area ratio), Cplasma is Drug concentration in plasma (Analyte/IS peak area ratio), Cspike is Drug concentration in spiked plasma (Analyte/IS peak area ratio).

[6] = Mouse plasma protein binding assay; assay type: in vitro ADME; conditions: mouse; plasma, compound 2000 ng/mL, mean±SD (n=3)
Method: as §1

[7] = biological target: T1, human catalytic PDI A1 a domain (PDIa) (Homo sapiens, UniProt P07237); experiment: Isothermal titration calorimetry (ITC) binding to PDIa
T1 construct: made in house; host or cells: Escherichia coli BL21-Gold (DE3)

[8] = biological target: T2, recombinant catalytic a domain of human PDI A1 (PDIa) (Homo sapiens, UniProt P07237); experiment: Insulin aggregation assay (PDIa reductase activity); assay type: biochemical
T2 construct: made in house; host or cells: Escherichia coli BL21-Gold (DE3)
T2 sequence (P07237 with tags, fused parts or gaps): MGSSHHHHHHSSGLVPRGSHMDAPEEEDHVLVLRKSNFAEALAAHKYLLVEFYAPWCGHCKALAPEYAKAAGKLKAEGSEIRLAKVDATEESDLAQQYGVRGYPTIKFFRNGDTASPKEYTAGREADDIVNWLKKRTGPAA

T1 sequence (P07237 with tags, fused parts or gaps): as above

Compound: O=C(C1CC1)N1CCN(Cn2sc3ccccc3c2=O)CC1 [LOC14, 2-((4-(cyclopropanecarbonyl)piperazin-1-yl)methyl)benzo[d]isothiazol-3(2H)-one]
- neuroprotection in tau-mediated neurodegeneration assay [1]: strongly and reproducibly neuroprotective
- % Remaining after 2-hour incubation [2]: 49.9%
- Elimination rate constant (k) [2]: 0.0049
- half-life at 1 μM ([2]; read-out: Half-life (t1/2) (converted)): 2.4 h
- Solubility in DMSO [3]: 100 mM in DMSO
- rescue of MSNs from mutant huntingtin-induced neurodegeneration [4]: rescued MSNs in a concentration-dependent manner
- binding to the plasma proteins [5]: low binding
- recovery at 4 h, 2000 ng/mL [6]: 113.8 ± 0.76%
- binding affinity to PDIa with 16F16 pre-treatment ([7]; 40 μM PDIa pre-treated overnight with 200 μM 16F16): reduced
- Kd ([7]; PDIa, Table 5, read-out: ITC Assay KD): 113 nM
- Kd ([7]; reduced PDIa 40 μM, compound 400 μM, 25° C., read-out: dissociation constant (Kd)): 61.7 ± 5.6 nM
- inhibition of PDIa enzymatic activity ([8]; compound 75 μM, PDIa 5 μM): almost completely inhibit
- inhibition of PDI's reduction of insulin without dilution ([8]; compound 750 μM): able to inhibit
